Measurements reported in ChEMBL document CHEMBL5523739, “NN1213 - A Potent, Long-Acting, and Selective Analog of Human Amylin” (J Med Chem, 2024).

What was measured:
[1] = system: Rattus norvegicus; test: Appetite suppressing activity in rat assessed as reduction in food intake at 30 nmol/kg, sc measured upto 24 hrs relative to control; format: functional; design: scale not given: the % may be the effect or the level left
[2] = system: Rattus norvegicus; test: Appetite suppressing activity in rat assessed as reduction in food intake at 30 nmol/kg, sc measured for 24 to 48 hrs relative to control; format: functional; design: scale not given: the % may be the effect or the level left; settings: time 24-48 hrs
[3] = species on record: Homo sapiens; test: Selectivity ratio of IC50 for human CTR expressed in Baby hamster kidney cell membrane to IC50 for human AMY3R complex of CTR/RAMP3 expressed in Baby hamster kidney cell membrane; format: cell-based
[4] = species on record: Rattus norvegicus; test: Selectivity ratio of EC50 for rat CTR expressed in Baby hamster kidney cells to EC50 for rat AMY3R complex of CTR/RAMP3 expressed in Baby hamster kidney cells; format: cell-based
[5] = species on record: Rattus norvegicus; test: Selectivity ratio of IC50 for rat CTR expressed in Baby hamster kidney cell membrane to IC50 for rat AMY3R complex of CTR/RAMP3 expressed in Baby hamster kidney cell membrane; format: cell-based
[6] = species on record: Homo sapiens; test: Selectivity ratio of EC50 for human CTR expressed in Baby hamster kidney cells to EC50 for human AMY3R complex of CTR/RAMP3 expressed in Baby hamster kidney cells; format: cell-based

Compound: CC[C@H](C)[C@H](NC(=O)[C@H](C)NC(=O)CNC(=O)[C@H](Cc1ccccc1)NC(=O)[C@H](CC(N)=O)NC(=O)[C@@H]1CCCN1C(=O)[C@H](CO)NC(=O)[C@H](CO)NC(=O)[C@H](Cc1c[nH]cn1)NC(=O)[C@H](CCCNC(=N)N)NC(=O)[C@H](CC(C)C)NC(=O)[C@H](Cc1ccccc1)NC(=O)[C@H](CC(=O)O)NC(=O)[C@H](C)NC(=O)[C@H](CC(C)C)NC(=O)[C@H](CCCNC(=N)N)NC(=O)[C@H](CCC(N)=O)NC(=O)[C@@H](NC(=O)[C@H](C)NC(=O)[C@@H]1CSSC[C@H](NC(=O)[C@@H](N)CCCCN)C(=O)N[C@@H](CC(N)=O)C(=O)N[C@@H]([C@@H](C)O)C(=O)N[C@@H](C)C(=O)N[C@@H]([C@@H](C)O)C(=O)N1)[C@@H](C)O)C(=O)N1CCC[C@H]1C(=O)N[C@@H](CO)C(=O)N[C@@H](CO)C(=O)N[C@H](C(=O)N[C@@H](CC(N)=O)C(=O)N[C@H](C(=O)NCC(=O)N[C@@H](CO)C(=O)N[C@@H](CC(=O)O)C(=O)N[C@H](C(=O)N[C@@H](Cc1ccc(O)cc1)C(N)=O)[C@@H](C)O)C(C)C)[C@@H](C)O
- Activity [1]: 72%
- Activity [2]: 62%

Compound: CC[C@H](C)[C@H](NC(=O)[C@H](C)NC(=O)CNC(=O)[C@H](Cc1ccccc1)NC(=O)[C@H](CC(N)=O)NC(=O)[C@@H]1CCCN1C(=O)[C@H](CO)NC(=O)[C@H](CO)NC(=O)[C@H](Cc1c[nH]cn1)NC(=O)[C@H](CCCNC(=N)N)NC(=O)[C@H](CC(C)C)NC(=O)[C@H](Cc1ccccc1)NC(=O)[C@H](CC(=O)O)NC(=O)[C@H](C)NC(=O)[C@H](CC(C)C)NC(=O)[C@H](CCCNC(=N)N)NC(=O)[C@H](CCC(N)=O)NC(=O)[C@@H](NC(=O)[C@H](C)NC(=O)[C@@H]1CSSC[C@H](NC(=O)[C@@H](N)CCCCN)C(=O)N[C@@H](CC(N)=O)C(=O)N[C@@H]([C@@H](C)O)C(=O)N[C@@H](C)C(=O)N[C@@H]([C@@H](C)O)C(=O)N1)[C@@H](C)O)C(=O)N1CCC[C@H]1C(=O)N[C@@H](CO)C(=O)N[C@H](CO)C(=O)N[C@H](C(=O)N[C@@H](CC(N)=O)C(=O)N[C@H](C(=O)NCC(=O)N[C@@H](CO)C(=O)N[C@@H](CC(=O)O)C(=O)N[C@H](C(=O)N[C@@H](Cc1ccc(O)cc1)C(N)=O)[C@@H](C)O)C(C)C)[C@@H](C)O
- Ratio IC50 [3]: 55
- Ratio EC50 [4]: 1340
- Ratio IC50 [5]: 447
- Ratio EC50 [6]: 15
